For series [1], the system named is kynurenine-3-monooxygenase. The series can be described thus: KMO inhibition, radiometric assay (Erickson et al.). Type of series: biochemical. The settings on record: 10 μM compound. The method, then:
The KMO inhibiting activities of the compounds of the present invention were evaluated using standard methods. See Erickson et al., A Radiometric Assay for Kynurenine 3-Hydroxylase Based on the Release of ^3H2O During Hydroxylation of L-[3,5-^3H]-Kynurenine, Anal. Biochem. 1992, 205, 257-262, the disclosure of which is hereby incorporated by reference.
The IC50 value is the half maximal inhibitory concentration and represents the concentration of an inhibitor that is required for 50% inhibition of an enzyme activity and the percent inhibition measures the amount of enzyme activity inhibited at a given concentration of compound.

The subject of series [2] is R6/2 model of Huntington's disease. The series can be described thus: Survival in a mouse model of Huntington's disease (FIG. 13). Type of series: in vivo. The conditions noted are these: R6/2 mice. The text has this:
The structure of the compound M is

For another series, the system named is 3-HK in the brain. The series can be described thus: In vivo comparison: 3-HK in the brain after oral administration (FIG. 12). The source says:
The structure of the compound 61-8048 is as below:

The source of these data is patent US8710237B2, “Small molecule inhibitors of kynurenine-3-monooxygenase” (The J. David Gladstone Institute, priority 2006, dated 2014).

Each structure is given as a SMILES string. Marks after values point to notes of the source that are not given here.

With `COc1ccc(S(=O)(=O)Nc2nc(-c3cccc([N+](=O)[O-])c3)c(CN3CCSCC3)s2)cc1OC`, the melting point – broadly, the temperature of the solid-liquid transition – worked out at 136 °C.
In turn, `COc1ccc(S(=O)(=O)Nc2nc(-c3cccc([N+](=O)[O-])c3)c(CN(C)C)s2)cc1OC` [A, 3,4-dimethoxy-N-[4-(3-nitrophenyl)-5-dimethylaminomethyl-1,3-thiazole-2-yl]benzenesulfonamide] came in with a melting point of 203 °C. In addition, the % inhibition (in general, the share of the control response that was lost under treatment) at 10 μM in series [1] was determined as 58%.
For `COc1ccc(S(=O)(=O)Nc2nc(-c3cccc([N+](=O)[O-])c3)c(CN3CCCC3)s2)cc1OC` [B, 3,4-dimethoxy-N-[4-(3-nitrophenyl)-5-(pyrrolidin-1-ylmethyl)-1,3-thiazole-2-yl]benzenesulfonamide] the same measures were 198 to 200 °C and 9* %.
For `COc1ccc(S(=O)(=O)Nc2nc(-c3cccc([N+](=O)[O-])c3)c(CN3CCCCC3)s2)cc1OC` [C, 3,4-dimethoxy-N-[4-(3-nitrophenyl)-5-(piperidin-1-ylmethyl)-1,3-thiazole-2-yl]benzenesulfonamide], the “% inhibition at 10 μM” value in series [1] came out at 24%.
For the compound `COc1ccc(S(=O)(=O)Nc2nc(-c3cccc([N+](=O)[O-])c3)cs2)cc1OC` [Compound 61-8048, 3,4-Dimethoxy-N-[4-(3-nitrophenyl)thiazol-2-yl]benzenesulfonamide, reference compound], in series [2] (100 mg/kg/day, not shown in the figure), the effect on survival result is given as “did not have a significant effect on survival”. In addition, the “decrease of 3-HK in the brain” value in the series on 3-HK in the brain was “does not decrease”.
Consider `COc1ccc(S(=O)(=O)N(CN2CCCCC2)c2nc(-c3cccc([N+](=O)[O-])c3)cs2)cc1OC` [Compound M], for which the “magnitude of the effect of protection (survival)” value in series [2] is recorded as “equal to or greater to that reported for any single agent administered in this model”.
Compound `COc1ccc(S(=O)(=O)Nc2nc(-c3cccc([N+](=O)[O-])c3)c(CN3CCOCC3)s2)cc1OC` [D, 3,4-dimethoxy-N-[4-(3-nitrophenyl)-5-morpholinomethyl-1,3-thiazole-2-yl]benzenesulfonamide] had a melting point of 143 °C. In addition, the “% inhibition at 10 μM” value in series [1] turned out to be 64%.
As to `COc1ccc(S(=O)(=O)Nc2nc(-c3cccc([N+](=O)[O-])c3)c(CN3CCN(C)CC3)s2)cc1OC` [E, 3,4-dimethoxy-N-[4-(3-nitrophenyl)-5-((4-methylpiperazin-1-yl)methyl)-1,3-thiazole-2-yl]benzenesulfonamide], the melting point is 215 to 217 °C. Further, the “% inhibition at 10 μM” value in series [1] is recorded as 6* %.
`CCN(CC)Cc1sc(NS(=O)(=O)c2ccc(OC)c(OC)c2)nc1-c1cccc([N+](=O)[O-])c1` [F, 3,4-dimethoxy-N-[4-(3-nitrophenyl)-5-(diethylamino)methyl-1,3-thiazole-2-yl]benzenesulfonamide] displayed a melting point of 165 to 168 °C. The “% inhibition at 10 μM” value in series [1] is 74%.
For `CCCN(C)Cc1sc(NS(=O)(=O)c2ccc(OC)c(OC)c2)nc1-c1cccc([N+](=O)[O-])c1` [G, 3,4-dimethoxy-N-[4-(3-nitrophenyl)-5-(methylpropylamino)methyl-1,3-thiazole-2-yl]benzenesulfonamide] the same measures were 143 to 145 °C and 73%.
Turning to `COc1ccc(S(=O)(=O)N(C)c2nc(-c3cccc([N+](=O)[O-])c3)cs2)cc1OC` [T, 3,4-dimethoxy-N-[4-(3-nitrophenyl)thiazol-2-yl]-N-(methyl)benzenesulfonamide], the “% inhibition at 10 μM” value in series [1] worked out at 52%.
Still for that read-out and setting: next, `CCOC(=O)CN(c1nc(-c2cccc([N+](=O)[O-])c2)cs1)S(=O)(=O)c1ccc(OC)c(OC)c1` [U, 3,4-dimethoxy-N-[4-(3-nitrophenyl)thiazol-2-yl]-N-[(ethylcarboxylate)methyl]benzenesulfonamide]: 81%; `CCOC(=O)N(c1nc(-c2cccc([N+](=O)[O-])c2)cs1)S(=O)(=O)c1ccc(OC)c(OC)c1` [V, 3,4-dimethoxy-N-[4-(3-nitrophenyl)thiazol-2-yl]-N-(ethylcarboxylate)benzenesulfonamide]: 84%.
Take `COC(=O)N(c1nc(-c2cccc([N+](=O)[O-])c2)cs1)S(=O)(=O)c1ccc(OC)c(OC)c1` [W, 3,4-dimethoxy-N-[4-(3-nitrophenyl)thiazol-2-yl]-N-(methylcarboxylate)benzenesulfonamide]: the “% inhibition at 10 μM” value in series [1] was 85%.
